Where “and” joins values, the source holds several entries; their conditions need not be identical. Identical values can stand only once.
What was measured:
FASN-TE [1] = target: T1, FASN-TE (Homo sapiens, UniProt P49327); experiment: In-vitro biochemical assay measuring FAS-TE inhibition (OMFH substrate, fluorescence)
Procedure: Min wells: Substrate+No enzyme+DMSO, Max wells: Substrate+Enzyme+DMSO, Sample wells: Substrate+Enzyme+Test compounds, Reference compound: Orlistat (make a fresh 10 mM stock in DMSO each time). 384-well black, low-volume plate (Greiner #784076)
Assay Protocol: • 1) ECHO transfer 160 nL of 125× Compound (or DMSO for control wells) per well. • 2) For Max and Sample wells: Add 10 μL of Enzyme (2×; 1.8 μM) prepared in RXN Buffer. For Min wells: Add 10 μL of RXN Buffer (No Enzyme). • 3) For all wells: Add 10 μL of Substrate (2×; 20 μM) prepared in diH2O+10% DMSO. • 4) Centrifuge plate for 1 minute at 1,000 rpm. • 5) Measure fluorescence every 5 minutes for 1-1.5 hours using the BMG POLARstar (ex 485 nm/em 520 nm; Gain=1015; 25 flashes). • 6) All volumes can be adjusted but the final DMSO concentration should be kept at about 6%.
Data Analysis: • 1) Calculate slopes and express as % Activity (Min wells=0%; Max wells=100%). • 2) Then, using Prism, calculate the IC50 values.

[2] = system: prostate cancer PC-3 cells; experiment: De novo palmitate synthesis from 13C-glucose in whole cells (GC-MS); type: cell-based; conditions: for de novo palmitate synthesis/DMSO (%): 20 μM, [U-13C]-glucose 24 h, pH 7.8, relative to DMSO control
Procedure: The ability of compounds to block biosynthesis of palmitate in whole cells (prostate cancer PC-3 cells) was measured by feeding cells isotopically labeled glucose (^13C-glucose) and measuring the incorporation of ^13C into palmitate by GC-MS.
Prostate cancer PC-3 cell were incubated with 20 μM of FASN inhibitors and labeled with [U-13C]-glucose for 24 h, pH 7.8. The incorporation of ^13C into palmitate from labeled glucose was determined by extracting fatty acids and resolving them by GC-MS. The mass distributions for fatty acid methyl esters for C16:0 (palmitate) were corrected for isotope natural abundance, and the corrected isotope patterns were used to calculate the labeling of acetyl-CoA in palmitate based on a binomial probability distribution of the incorporation of labeled acetyl units into the fatty acid chain.

FASN = target: T2, FASN (Homo sapiens, UniProt P49327); experiment: Competition with activity-based probe FP-PEG-TAMRA in PC-3 whole cell lysate: FASN; type: binding; conditions: PC-3 lysate, 20 μM final, pH 7.8
T2 construct: lysates of the prostate tumor line (PC3), which expresses FASN; endogenous in cells; host or cells: PC-3 prostate tumour cells (whole cell lysate)
T2 sequence (P49327 whole entry): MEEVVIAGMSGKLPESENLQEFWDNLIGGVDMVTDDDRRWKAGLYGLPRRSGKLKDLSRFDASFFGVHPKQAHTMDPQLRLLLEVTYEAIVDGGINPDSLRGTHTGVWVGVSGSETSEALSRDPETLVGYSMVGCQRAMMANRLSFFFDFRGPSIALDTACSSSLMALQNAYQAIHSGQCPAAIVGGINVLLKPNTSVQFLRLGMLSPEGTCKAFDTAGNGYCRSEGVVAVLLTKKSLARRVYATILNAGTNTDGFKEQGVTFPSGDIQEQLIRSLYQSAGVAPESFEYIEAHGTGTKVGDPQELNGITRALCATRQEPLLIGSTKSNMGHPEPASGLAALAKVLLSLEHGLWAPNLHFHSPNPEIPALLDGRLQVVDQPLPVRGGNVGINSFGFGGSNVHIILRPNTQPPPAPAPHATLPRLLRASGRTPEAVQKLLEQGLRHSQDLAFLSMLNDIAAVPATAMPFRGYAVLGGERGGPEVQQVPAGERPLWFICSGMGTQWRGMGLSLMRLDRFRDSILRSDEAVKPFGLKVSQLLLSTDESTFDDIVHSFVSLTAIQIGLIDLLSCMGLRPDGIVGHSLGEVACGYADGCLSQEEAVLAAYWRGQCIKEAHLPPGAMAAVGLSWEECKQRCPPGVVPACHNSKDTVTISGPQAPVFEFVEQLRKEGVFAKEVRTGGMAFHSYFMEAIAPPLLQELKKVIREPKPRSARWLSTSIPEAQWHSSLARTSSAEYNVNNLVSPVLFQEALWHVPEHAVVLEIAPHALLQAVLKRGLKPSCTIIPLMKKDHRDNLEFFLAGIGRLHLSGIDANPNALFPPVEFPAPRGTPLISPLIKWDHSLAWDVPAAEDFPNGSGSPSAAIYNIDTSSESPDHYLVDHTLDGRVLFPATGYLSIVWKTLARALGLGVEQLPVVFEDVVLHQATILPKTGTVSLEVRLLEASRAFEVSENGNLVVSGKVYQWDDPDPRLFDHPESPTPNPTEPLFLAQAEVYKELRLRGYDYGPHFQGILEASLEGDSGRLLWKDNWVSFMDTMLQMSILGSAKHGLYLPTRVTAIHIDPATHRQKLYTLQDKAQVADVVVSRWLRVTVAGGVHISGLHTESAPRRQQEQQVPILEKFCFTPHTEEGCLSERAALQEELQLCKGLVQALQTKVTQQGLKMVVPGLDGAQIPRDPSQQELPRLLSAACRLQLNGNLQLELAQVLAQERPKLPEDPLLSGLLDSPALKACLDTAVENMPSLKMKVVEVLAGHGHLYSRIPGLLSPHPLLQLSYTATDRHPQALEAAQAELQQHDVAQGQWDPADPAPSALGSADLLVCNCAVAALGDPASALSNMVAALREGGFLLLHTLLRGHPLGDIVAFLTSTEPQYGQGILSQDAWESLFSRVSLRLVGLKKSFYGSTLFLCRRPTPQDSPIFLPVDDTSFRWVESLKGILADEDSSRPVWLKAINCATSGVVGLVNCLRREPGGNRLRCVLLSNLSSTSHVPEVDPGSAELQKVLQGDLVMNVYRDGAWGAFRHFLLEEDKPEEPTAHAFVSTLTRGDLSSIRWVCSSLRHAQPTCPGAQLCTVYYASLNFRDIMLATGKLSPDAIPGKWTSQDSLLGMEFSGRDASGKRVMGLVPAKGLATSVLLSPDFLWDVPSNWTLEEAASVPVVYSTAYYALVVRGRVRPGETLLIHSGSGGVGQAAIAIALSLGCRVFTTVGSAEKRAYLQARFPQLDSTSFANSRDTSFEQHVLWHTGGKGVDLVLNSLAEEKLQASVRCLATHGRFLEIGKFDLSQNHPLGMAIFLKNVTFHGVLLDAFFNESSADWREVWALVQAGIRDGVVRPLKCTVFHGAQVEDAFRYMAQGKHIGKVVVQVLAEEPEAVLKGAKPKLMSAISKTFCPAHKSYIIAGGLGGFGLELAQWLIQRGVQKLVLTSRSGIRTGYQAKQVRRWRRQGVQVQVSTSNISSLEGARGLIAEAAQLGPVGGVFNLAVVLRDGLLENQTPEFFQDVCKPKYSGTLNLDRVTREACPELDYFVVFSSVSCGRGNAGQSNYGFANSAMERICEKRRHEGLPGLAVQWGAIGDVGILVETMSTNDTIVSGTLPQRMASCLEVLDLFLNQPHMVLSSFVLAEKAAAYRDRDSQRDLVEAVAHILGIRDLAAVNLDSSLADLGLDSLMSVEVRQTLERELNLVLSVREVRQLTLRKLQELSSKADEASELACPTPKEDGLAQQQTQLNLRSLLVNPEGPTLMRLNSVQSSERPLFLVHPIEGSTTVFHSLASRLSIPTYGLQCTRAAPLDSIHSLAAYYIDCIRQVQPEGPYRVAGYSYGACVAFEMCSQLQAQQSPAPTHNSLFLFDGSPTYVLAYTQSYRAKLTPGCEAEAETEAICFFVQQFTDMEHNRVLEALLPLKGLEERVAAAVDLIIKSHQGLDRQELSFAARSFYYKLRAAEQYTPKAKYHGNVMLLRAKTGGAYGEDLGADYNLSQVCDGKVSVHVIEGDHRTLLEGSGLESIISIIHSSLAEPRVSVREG
Procedure: Studies were conducted to determine the selectivity of compound 16 for FASN over other human thioesterases. The ability of the compounds to bind the FASN holoenzyme was tested by assessing their ability to compete for the binding of an activity-based probe that covalently attaches to the active site of the FASN thioesterase. Thioesterases are members of the serine hydrolase family, which also includes a number of other types of enzymes including proteases, dipeptidyl peptidases, epoxide hydrolases, etc. To help assess the selectivity of compound 16, an activity-based probe polyethyleneglycol-6-carboxytetramethyl-rhodamine (FP-PEG-TAMRA) that binds covalently to the catalytic serine of all serine hydrolases was used. These studies were done by assessing the ability of compound 16 to compete for the binding of the activity-based probe in whole cell lysates. Several analogs of compound 16 were tested in this assay using lysates of the prostate tumor line (PC3), which expresses FASN, along with numerous other serine hydrolases. The PC-3 lysate was incubated with 8 different FASN inhibitors, including compounds 1, 16 and 97. Then the activity-based probe (FP-PEG-TAMRA) was added to each sample to label the serine hydrolases in the lysate.

FASN thioesterase = target: T3, FASN thioesterase (Homo sapiens, UniProt P49327); experiment: FP-PEG-TAMRA labeling of recombinant FASN thioesterase; type: binding; conditions: recombinant enzyme, 20 μM final, pH 7.8
T3 construct: label the active site of the FASN thioesterase and ACOT4
T3 sequence (P49327 2207-2511 limits assumed): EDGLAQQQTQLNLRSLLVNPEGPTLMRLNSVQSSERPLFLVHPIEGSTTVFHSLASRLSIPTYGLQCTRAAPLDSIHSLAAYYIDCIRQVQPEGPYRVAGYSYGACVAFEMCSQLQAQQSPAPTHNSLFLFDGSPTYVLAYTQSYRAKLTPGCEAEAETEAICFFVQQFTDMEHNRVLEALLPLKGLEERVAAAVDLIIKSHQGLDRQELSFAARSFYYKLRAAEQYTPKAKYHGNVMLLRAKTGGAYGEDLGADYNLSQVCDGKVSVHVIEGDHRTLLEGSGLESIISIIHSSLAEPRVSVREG
Procedure: (§1) Additionally, studies were performed to test the selectivity of Compounds 1, 16, 22, and 37 for the FASN thioesterase over its most closely related human homolog, the enzyme called ACOT4 (see FIG. 3). Both proteins were mixed and pretreated with the compound (20 μM final, pH 7.8) before addition of the fluorescent activity probe FP-PEG-TAMRA. Respective fluorescence of the bands was detected on a Hitachi flatbed scanner and a greyscale version used for quantitative analysis using ImageJ. Recombinant forms of each enzyme were incubated with compound 16, compound 1, compound 37, and compound 22. FP-TAMRA was included in this mixture to label the active site of the FASN thioesterase and ACOT4. […] These findings further attest to the high degree of selectivity of compounds 1, 16, 37 and 22 for the FASN thioesterase.

ACOT4 = target: T4, ACOT4 (Homo sapiens, UniProt Q8N9L9); experiment: FP-PEG-TAMRA labeling of recombinant ACOT4; type: binding; conditions: recombinant enzyme, 20 μM final, pH 7.8
T4 sequence (Q8N9L9 1-421): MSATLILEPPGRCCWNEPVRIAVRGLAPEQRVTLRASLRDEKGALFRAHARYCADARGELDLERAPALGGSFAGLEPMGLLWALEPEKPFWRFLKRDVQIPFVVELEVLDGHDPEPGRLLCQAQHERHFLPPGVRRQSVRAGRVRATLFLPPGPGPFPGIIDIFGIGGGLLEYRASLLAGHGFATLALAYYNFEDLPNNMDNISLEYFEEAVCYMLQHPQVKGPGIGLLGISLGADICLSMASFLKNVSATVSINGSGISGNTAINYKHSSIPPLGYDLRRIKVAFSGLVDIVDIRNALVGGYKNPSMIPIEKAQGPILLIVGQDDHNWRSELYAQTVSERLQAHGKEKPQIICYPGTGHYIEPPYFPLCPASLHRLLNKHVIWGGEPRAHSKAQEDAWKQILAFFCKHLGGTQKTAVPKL
Procedure: as §1

FASN-TE [3] = target: T1, FASN-TE; experiment: Eadie-Hofstee enzymology analysis; type: biochemical
Procedure: Furthermore, using a classical enzymology analysis (Eadie-Hofstee) compound 37 was determined to have a non-competitive mode of inhibition (see FIG. 2).

[4] = system: enzymes, receptors & ion channels; experiment: Commercial panel of 34 binding assays (Eurofins Panlabs); conditions: 10 μM
Procedure: (§2) To further evaluate selectivity and identify any off-target effects, compound 37 was tested against a commercial panel of 34 binding assays (enzymes, receptors & ion channels) through Eurofins Panlabs. […] Compound 37 was also tested in a commercial panel of 17 diverse proteases (Reaction Biology).

CYP450 2C19 = target: T5, CYP450 2C19 (Homo sapiens, UniProt P33261); experiment: Eurofins Panlabs binding panel: CYP450 2C19; conditions: 10 μM
T5 construct: purchased Eurofins Panlabs
T5 sequence (P33261 whole entry): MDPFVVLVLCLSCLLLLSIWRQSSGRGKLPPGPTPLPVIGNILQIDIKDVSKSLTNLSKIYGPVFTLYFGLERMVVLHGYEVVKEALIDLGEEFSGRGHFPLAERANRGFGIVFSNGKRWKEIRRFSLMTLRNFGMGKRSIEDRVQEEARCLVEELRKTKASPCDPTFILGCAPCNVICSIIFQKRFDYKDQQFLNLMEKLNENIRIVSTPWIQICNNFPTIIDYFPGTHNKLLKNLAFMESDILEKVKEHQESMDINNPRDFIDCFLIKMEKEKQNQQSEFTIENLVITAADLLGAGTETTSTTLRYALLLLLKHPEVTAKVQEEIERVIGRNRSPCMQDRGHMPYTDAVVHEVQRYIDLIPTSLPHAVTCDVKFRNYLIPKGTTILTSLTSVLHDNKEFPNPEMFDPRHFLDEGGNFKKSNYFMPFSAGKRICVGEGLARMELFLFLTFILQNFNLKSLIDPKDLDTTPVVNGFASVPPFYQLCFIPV
Procedure: as §2

sodium channel = experiment: Eurofins Panlabs binding panel: sodium channel; conditions: 10 μM
Procedure: as §2

17 diverse proteases = experiment: Commercial panel of 17 diverse proteases (Reaction Biology); type: biochemical; conditions: up to 100 μM
Procedure: as §2

chymotrypsin = experiment: Reaction Biology protease panel: chymotrypsin; type: biochemical; conditions: read-out: chymotrypsin inhibition (IC50)
Procedure: as §2

[5] = Pharmacokinetic study, IP dosing; type: in vivo; conditions: mice, 10 mg/kg IP
Procedure: A pharmacokinetic (PK) study of Compound 37 dosed systemically (IP) in mice was conducted. At 10 mg/kg (IP) compound 37 attained plasma levels post dosing of >3 μM up to 30 min., >2 μM up to 1 h, and >1 μM up to 2 h.

T1 sequence (P49327 2207-2511 limits assumed): as the sequence (P49327 2207-2511 limits assumed) above

SMILES	IC50 (FASN-TE [1])	inhibition of palmitate synthesis in whole cells [2]	de novo palmitate synthesis/DMSO (%) [2]	inhibition of FASN (blocking of FP-TAMRA binding) (FASN)	binding of FP-TAMRA to the active site of the FASN thioesterase (FASN thioesterase)	activity labeling of ACOT4 (ACOT4)	other results
CCCCC(=O)Nc1nc(-c2ccc(S(=O)(=O)N3CCOCC3)cc2)cs1 [Compound 1]	199 nM and 204 nM and 555 nM	inhibitory activity	40%	showed inhibition of FASN	blocked the binding of FP-TAMRA	without effect	–
CCCCC(=O)Nc1nc(-c2ccc(S(=O)(=O)N3CCC(C)CC3)cc2)cs1 [Compound 22]	501 nM	–	–	–	blocked the binding of FP-TAMRA	without effect	–
CCC(C)C(=O)Nc1nc(-c2ccc(S(=O)(=O)N(CC)CC)cc2)cs1 (centres unmarked) [Compound 37]	300 nM	dose-dependently inhibits palmitate synthesis	–	–	blocked the binding of FP-TAMRA	without effect	mode of inhibition (FASN-TE [3]): non-competitive; binding interactions >50% in panel of 34 binding assays [4]: Only two binding interactions>50%; binding interaction (CYP450 2C19): 50%; binding interaction (sodium channel): 74%; interactions in panel of 17 proteases (17 diverse proteases): Only one interaction; IC50 (chymotrypsin): 1700 nM; plasma levels post dosing ([5]; up to 30 min): > 3000 nM; plasma levels post dosing ([5]; up to 1 h): > 2000 nM; plasma levels post dosing ([5]; up to 2 h): > 1000 nM
Cc1ccc(NC(=O)Cc2nc(-c3ccc(S(=O)(=O)N4CCOCC4)cc3)cs2)cc1 [Compound 97]	≥ 80000 nM	did not inhibit palmitate synthesis	95%	did not	–	–	activity in the enzyme-based assay (FASN-TE [1]; negative control): no activity
CC(C)c1nc(-c2ccc(S(=O)(=O)N3CCOCC3)cc2)cs1 [Compound 115]	21700 nM	–	–	–	–	–	–
O=S(=O)(c1ccc(-c2csc(-c3ccc(F)cc3)n2)cc1)N1CCOCC1 [Compound 116]	1480 nM	–	–	–	–	–	–

Reference: patent publication US10071976B2, “Small molecule fatty acid synthase inhibitors” (Sanford Burnham Prebys Medical Discovery Institute, priority 2014, dated 2018)
